The text below walks through data of patent US20250179078A1, “INHIBITORS OF NLRP3” (PTC THERAPEUTICS, INC., priority 2022, published 2025).

The structures appear in SMILES notation.

The target in the assay is T1, NLRP3 (Homo sapiens, UniProt Q96P20).
T1 construct: host or cells: THP-1 cells differentiated with PMA
In words: IL-1β Secretion Assay (NLRP3-dependent IL1β secretion in THP1 cells). The format is cell-based. Particulars: PMA-differentiated THP-1 cells; compounds incubated 20 h; 2.5 μM Nigericin 3 h; HTRF IL-1β readout; read-out: IC50 IL-1β Inhibition. The essentials:
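THP-1 cells differentiated with 100 ng/mL PMA for 24 h, then given compound (7-point 3-fold series, 1:200 from DMSO) for 20 h in RPMI+5% FBS. NLRP3 activated with 2.5 μM nigericin for 3 h; secreted IL-1β measured by HTRF; IC50 from logistic fit of % inhibition.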

T1 sequence (Q96P20 whole entry): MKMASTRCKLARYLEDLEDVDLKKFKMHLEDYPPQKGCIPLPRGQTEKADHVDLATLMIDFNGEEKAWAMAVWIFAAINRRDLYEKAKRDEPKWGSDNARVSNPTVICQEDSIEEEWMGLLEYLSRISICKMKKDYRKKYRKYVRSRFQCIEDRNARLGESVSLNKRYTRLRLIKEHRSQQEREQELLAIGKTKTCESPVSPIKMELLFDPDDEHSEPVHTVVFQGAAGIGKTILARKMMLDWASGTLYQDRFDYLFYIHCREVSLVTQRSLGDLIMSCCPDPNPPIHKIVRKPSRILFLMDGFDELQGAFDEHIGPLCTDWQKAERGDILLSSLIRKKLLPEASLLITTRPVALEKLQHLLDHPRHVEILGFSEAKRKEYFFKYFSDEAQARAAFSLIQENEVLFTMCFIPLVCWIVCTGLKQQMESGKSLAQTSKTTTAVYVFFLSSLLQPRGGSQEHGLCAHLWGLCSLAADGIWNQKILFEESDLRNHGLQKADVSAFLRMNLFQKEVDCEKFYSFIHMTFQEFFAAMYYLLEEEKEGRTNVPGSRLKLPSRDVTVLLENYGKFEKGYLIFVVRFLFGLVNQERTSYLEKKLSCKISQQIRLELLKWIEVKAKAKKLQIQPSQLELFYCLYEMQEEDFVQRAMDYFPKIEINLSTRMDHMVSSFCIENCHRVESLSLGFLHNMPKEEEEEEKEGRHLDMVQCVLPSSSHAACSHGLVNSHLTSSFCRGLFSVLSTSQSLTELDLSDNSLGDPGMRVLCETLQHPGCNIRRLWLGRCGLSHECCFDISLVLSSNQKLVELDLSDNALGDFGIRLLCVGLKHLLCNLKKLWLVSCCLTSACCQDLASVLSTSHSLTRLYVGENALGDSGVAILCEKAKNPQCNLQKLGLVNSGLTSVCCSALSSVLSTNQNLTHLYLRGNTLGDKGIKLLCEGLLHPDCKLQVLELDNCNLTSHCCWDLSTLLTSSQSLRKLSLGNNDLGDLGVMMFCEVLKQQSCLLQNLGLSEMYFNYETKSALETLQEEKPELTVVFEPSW

Consider `O[C@@H]1CCCC[C@H]1Nc1nnc(-c2ccc(OC(F)F)cc2OC(F)(F)F)c2cncn12` [Compound 246, (1R,2R)-2-({1-[4-(difluoromethoxy)-2-(trifluoromethoxy)phenyl]imidazo[1,5-d][1,2,4]triazin-4-yl}amino)cyclohexan-1-ol], for which the IC50 was less than 1 nM.
Consider `O[C@@H]1CCCC[C@H]1Nc1nnc(-c2ccc(Cl)cc2OC(F)(F)F)c2cncn12` [Compound 300, (1R,2R)-2-({1-[4-chloro-2-(trifluoromethoxy)phenyl]imidazo[1,5-d][1,2,4]triazin-4-yl}amino)cyclohexan-1-ol], for which the IC50 was in the range of 1 to 10 nM.
Turning to `CCN1CCC[C@@H](Nc2nnc(-c3ccc(C(F)(F)F)cc3C(F)(F)F)c3c(F)ccn23)C1` [Compound 29, 1-[2,4-bis(trifluoromethyl)phenyl]-N-[(3R)-1-ethylpiperidin-3-yl]-8-fluoropyrrolo[1,2-d][1,2,4]triazin-4-amine], the IC50 was in the range of 1 to 10 nM.
For `CN1CCC[C@@H](Nc2nnc(-c3ccc(Br)cc3OC(F)(F)F)c3cncn23)C1` [Compound 312, 1-[4-bromo-2-(trifluoromethoxy)phenyl]-N-[(3R)-1-methylpiperidin-3-yl]imidazo[1,5-d][1,2,4]triazin-4-amine], the IC50 is less than 1 nM.
As to `O[C@@H]1COCC[C@H]1Nc1nnc(-c2ccc(C3CC3)cc2CC(F)(F)F)c2cncn12` [Compound 351, (3S,4R)-4-({1-[4-cyclopropyl-2-(2,2,2-trifluoroethyl)phenyl]imidazo[1,5-d][1,2,4]triazin-4-yl}amino)oxan-3-ol], the IC50 was 1 to 10 nM.
Under `C[C@]1(O)C[C@@H](Nc2nnc(-c3ccc(C(F)(F)F)cc3OC(F)(F)F)c3cccn23)C1` [Compound 123, (1s,3s)-1-methyl-3-({1-[2-(trifluoromethoxy)-4-(trifluoromethyl)phenyl]pyrrolo[1,2-d][1,2,4]triazin-4-yl}amino)cyclobutan-1-ol] stands 1 to 10 nM; under `Cc1ccc(-c2nnc(N[C@H]3C[C@@H](CO)C3)n3cncc23)c(OC(F)(F)F)c1` [Compound 347, [(1s,3s)-3-({1-[4-methyl-2-(trifluoromethoxy)phenyl]imidazo[1,5-d][1,2,4]triazin-4-yl}amino)cyclobutyl]methanol], 10 to 100 nM.
To `C[C@]1(O)C[C@@H](Nc2nnc(-c3ccc(C(F)(F)F)cc3C(F)(F)F)c3c(F)ccn23)C1` [Compound 38, (1s,3s)-3-({1-[2,4-bis(trifluoromethyl)phenyl]-8-fluoropyrrolo[1,2-d][1,2,4]triazin-4-yl}amino)-1-methylcyclobutan-1-ol] belongs 10 to 100 nM; to `CCN1CC[C@H](O)[C@@H](Nc2nnc(-c3ccc(C(F)(F)F)cc3OC(F)F)c3cccn23)C1` [Compound 46, (3S,4S)-3-({1-[2-(difluoromethoxy)-4-(trifluoromethyl)phenyl]pyrrolo[1,2-d][1,2,4]triazin-4-yl}amino)-1-ethylpiperidin-4-ol], 10 to 100 nM; to `COc1ccc(-c2nnc(N[C@H]3C[C@@](C)(O)C3)n3cncc23)c(OC(F)F)c1` [Compound 226, (1s,3s)-3-({1-[2-(difluoromethoxy)-4-methoxyphenyl]imidazo[1,5-d][1,2,4]triazin-4-yl}amino)-1-methylcyclobutan-1-ol], 10 to 100 nM.
For the compound `O=C1NCCC1Nc1nnc(-c2ccc(C3CC3)cc2CC(F)(F)F)c2cncn12` (stereo not drawn) [Compound 350, 3-({1-[4-cyclopropyl-2-(2,2,2-trifluoroethyl)phenyl]imidazo[1,5-d][1,2,4]triazin-4-yl}amino)pyrrolidin-2-one], the IC50 fell in the range of 1 to 10 nM.
Under `COc1ccc(-c2nnc(N[C@H](C)c3cccc(O)c3)n3cncc23)c(OC(F)(F)F)c1` (single isomer, unassigned) [Compound 248] stands no less than 300 nM.
For `COc1ccc(-c2nnc(NC[C@H]3CCCO3)n3cccc23)c(OC(F)(F)F)c1` [Compound 73, 1-[4-methoxy-2-(trifluoromethoxy)phenyl]-N-{[(2R)-oxolan-2-yl]methyl}pyrrolo[1,2-d][1,2,4]triazin-4-amine], the IC50 lay within 10 to 100 nM.
Turning to `O[C@H]1CCCC[C@@H]1Nc1nnc(-c2ccc(C(F)(F)F)cc2OC(F)F)c2cccn12` [Compound 78, (1S,2S)-2-({1-[2-(difluoromethoxy)-4-(trifluoromethyl)phenyl]pyrrolo[1,2-d][1,2,4]triazin-4-yl}amino)cyclohexan-1-ol], the IC50 was in the range of 10 to 100 nM.
For `FC(F)Oc1cc(Cl)ccc1-c1nnc(N[C@@H]2CCCOC2)n2cncc12` [Compound 189, 1-[4-chloro-2-(difluoromethoxy)phenyl]-N-[(3R)-oxan-3-yl]imidazo[1,5-d][1,2,4]triazin-4-amine], the IC50 fell in the range of 10 to 100 nM.
Turning to `COc1ccc(-c2nnc(N[C@@H]3CCCN(C)C3)n3cncc23)c(CC(F)(F)F)c1` [Compound 250, 1-[4-methoxy-2-(2,2,2-trifluoroethyl)phenyl]-N-[(3R)-1-methylpiperidin-3-yl]imidazo[1,5-d][1,2,4]triazin-4-amine], the IC50 is less than 1 nM.
For `COc1ccc(-c2nnc(N[C@@H]3CCCN(CCO)C3)n3ccc(F)c23)c(C(F)(F)F)c1` [Compound 18, 2-[(3R)-3-({8-fluoro-1-[4-methoxy-2-(trifluoromethyl)phenyl]pyrrolo[1,2-d][1,2,4]triazin-4-yl}amino)piperidin-1-yl]ethan-1-ol], the IC50 was in the range of 1 to 10 nM.
On to `COc1ccc(-c2nnc(N[C@H]3C[C@@](C)(O)C3)n3nc(C)cc23)c(OC(F)(F)F)c1` [Compound 391, (1s,3s)-3-({4-[4-methoxy-2-(trifluoromethoxy)phenyl]-2-methylpyrazolo[1,5-d][1,2,4]triazin-7-yl}amino)-1-methylcyclobutan-1-ol], for which the IC50 lay in the range of 10 to 100 nM.
To `Cc1ccc(-c2nnc(N[C@@H]3CCCN(C)C3)n3cncc23)c(CC(F)(F)F)c1` [Compound 317, N-[(3R)-1-methylpiperidin-3-yl]-1-[4-methyl-2-(2,2,2-trifluoroethyl)phenyl]imidazo[1,5-d][1,2,4]triazin-4-amine] belongs 1 to 10 nM; to `C[C@]1(O)CCCC[C@@H]1Nc1nnc(-c2ccc(C(F)(F)F)cc2CC(F)(F)F)c2cncn12` (racemic) [Compound 283, (1S,2S)-1-methyl-2-({1-[2-(2,2,2-trifluoroethyl)-4-(trifluoromethyl)phenyl]imidazo[1,5-d][1,2,4]triazin-4-yl}amino)cyclohexan-1-ol AND (1R,2R)-1-methyl-2-({1-[2-(2,2,2-trifluoroethyl)-4-(trifluoromethyl)phenyl]imidazo[1,5-d][1,2,4]triazin-4-yl}amino)cyclohexan-1-ol], 1 to 10 nM.
Regarding `COc1ccc(-c2nnc(NCC(C)(C)O)n3cccc23)c(OC(F)(F)F)c1` [Compound 66, 1-({1-[4-methoxy-2-(trifluoromethoxy)phenyl]pyrrolo[1,2-d][1,2,4]triazin-4-yl}amino)-2-methylpropan-2-ol], the IC50 was 10 to 100 nM.
For the compound `CCN1C[C@H](F)C[C@@H](Nc2nnc(-c3ccc(C(F)(F)F)cc3OC(F)F)c3cc(C)nn23)C1` [Compound 356, 4-[2-(difluoromethoxy)-4-(trifluoromethyl)phenyl]-N-[(3R,5R)-1-ethyl-5-fluoropiperidin-3-yl]-2-methylpyrazolo[1,5-d][1,2,4]triazin-7-amine], the IC50 is less than 1 nM.
Regarding `Cc1cc2c(-c3ccc(Cl)cc3C(F)F)nnc(N[C@@H]3CCCN(C)C3)n2c1` [Compound 11, 1-[4-chloro-2-(difluoromethyl)phenyl]-7-methyl-N-[(3R)-1-methylpiperidin-3-yl]pyrrolo[1,2-d][1,2,4]triazin-4-amine], the IC50 fell in the range of 10 to 100 nM.
For `COc1ccc(-c2nnc(N[C@@H]3CCC[C@H](O)C3)n3cccc23)c(C2CC2)c1` [Compound 106, (1S,3R)-3-{[1-(2-cyclopropyl-4-methoxyphenyl)pyrrolo[1,2-d][1,2,4]triazin-4-yl]amino}cyclohexan-1-ol], the IC50 lay in the range of 10 to 100 nM.
On to `CCN1CC[C@@H](O)[C@@H](Nc2nnc(-c3ccc(OC(F)F)cc3OC(F)(F)F)c3cccn23)C1` [Compound 171, (3S,4R)-3-({1-[4-(difluoromethoxy)-2-(trifluoromethoxy)phenyl]pyrrolo[1,2-d][1,2,4]triazin-4-yl}amino)-1-ethylpiperidin-4-ol], for which the IC50 is less than 1 nM.
To `COc1ccc(-c2nnc(NC3CCNC3=O)n3cc(C)cc23)c(OC(F)(F)F)c1` (stereo not drawn) [Compound 162, 3-({1-[4-methoxy-2-(trifluoromethoxy)phenyl]-7-methylpyrrolo[1,2-d][1,2,4]triazin-4-yl}amino)pyrrolidin-2-one] belongs 1 to 10 nM.
Consider `CN1C[C@H](F)C[C@@H](Nc2nnc(-c3ccc(Cl)cc3OC(F)F)c3cncn23)C1` [Compound 193, 1-[4-chloro-2-(difluoromethoxy)phenyl]-N-[(3R,5R)-5-fluoro-1-methylpiperidin-3-yl]imidazo[1,5-d][1,2,4]triazin-4-amine], for which the IC50 was 1 to 10 nM.
To `O[C@@H]1CCCC[C@H]1Nc1nnc(-c2ccc(C(F)(F)F)cc2OC(F)(F)F)c2cccn12` [Compound 151, (1R,2R)-2-({1-[2-(trifluoromethoxy)-4-(trifluoromethyl)phenyl]pyrrolo[1,2-d][1,2,4]triazin-4-yl}amino)cyclohexan-1-ol] belongs 1 to 10 nM; to `O=C1NCCC1Nc1nnc(-c2ccc(C(F)(F)F)cc2CC(F)(F)F)c2cncn12` (stereo not drawn) [Compound 265, 3-({1-[2-(2,2,2-trifluoroethyl)-4-(trifluoromethyl)phenyl]imidazo[1,5-d][1,2,4]triazin-4-yl}amino)pyrrolidin-2-one], less than 1 nM.
Turning to `COc1ccc(-c2nnc(N[C@@H]3CCCN(CCO)C3)n3cncc23)c(OC(F)F)c1` [Compound 225, 2-[(3R)-3-({1-[2-(difluoromethoxy)-4-methoxyphenyl]imidazo[1,5-d][1,2,4]triazin-4-yl}amino)piperidin-1-yl]ethan-1-ol], the IC50 was 1 to 10 nM.
